Test results from PMC7363588, “Mapping of the FGF14:Nav1.6 complex interface reveals FLPK as a functionally active peptide modulating excitability” (Physiological Reports, 2020).
“Also recorded” adds a separate entry of the source. Peptide text beside a SMILES is read from it.

How the values were obtained:
Format in all cases: cell-based, human
Settings in all cases: 50 µM peptide, 12 hr, HEK293, vs DMSO
[1] = test system: FGF14^Y158A/V160A:Nav1.6 complex; experiment: LCA, CLuc-FGF14^Y158A/V160A
[2] = test system: FGF14^Y158A:Nav1.6 complex; experiment: LCA, CLuc-FGF14^Y158A
[3] = test system: FGF14^V160A:Nav1.6 complex; experiment: LCA, CLuc-FGF14^V160A
Source text: Plasmids used in this study derived from the following clones: human FGF14‐1b isoform (accession number: NM_175929.2) and human Nav1.6 (accession number: NM_014191.3). The CLuc‐FGF14, CD4‐Nav1.6‐NLuc, constructs and the pcDNA3.1 vector (Invitrogen, Carlsbad, CA) were engineered and characterized as previously described (Goetz et al., 2009; Shavkunov et al., 2012,2013,2015; Ali et al., 2016, 2018; Wadsworth et al., 2019). The plasmid pGL3 expressing full length Firefly (Photinus pyralis) luciferase was a gift from Dr. P. Sarkar (Department of Neurology, UTMB). For protein purification studies, cDNAs encoding FGF14‐1b (accession number NP_787125; aa 64–252) or the C‐terminal tail of Nav1.6 (accession number #NP_001171455; aa 1756–1939) were subcloned into suitable pET bacterial expression vectors (pET28a‐FGF14; pET30a‐Nav1.6) with a 6X His‐tag at the N‐terminal site; these plasmids were a gift of Dr. Moosa Mohammadi (NYU, Langone Medical Center). The mutation coding for FGF14^V160A was generated by site‐directed mutagenesis and PCR using FGF14‐1b as a template described previously (Ali et al., 2016). […]
Twenty‐four hours after transfection, HEK293 cells were replated from the 24‐well plate using a 0.04% Trypsin:EDTA mixture dissolved in PBS. […] The bioluminescence reaction was initiated by dispensing 100 µl of D‐luciferin substrate (1.5 mg/ml dissolved in PBS) using a Synergy^TM H4 Multi‐Mode Micro plate Reader (Biotech, Winooski, VT). Luminescence readings were initiated after 3 s of mild plate shaking and performed at 2 min intervals for 20 min with integration times of 0.5 s. […]
To test the hypothesis that FLPK, PLEV and/or EYYV in cells could act as FGF14 inhibitors of the FGF14:Nav1.6 complex assembly, the complex was reconstituted using LCA (Ali et al., 2014, 2016; Hsu et al., 2015, 2017; Shavkunov et al., 2012,2013,2015; Wadsworth et al., 2019). HEK293 cells transfected with constructs expressing CLuc‐FGF14 and CD4‐Nav1.6 C‐tail‐NLuc in which luminescence is detected upon addition of the D‐luciferin substrate as a read‐out of protein binding (Figure 3). […]

| Molecule | effect on FGF14^Y158A/V160A:Nav1.6 complex formation [1] | effect on FGF14^Y158A:Nav1.6 complex formation [2] | effect on FGF14^V160A:Nav1.6 complex formation [3] |
| --- | --- | --- | --- |
| PLEV [tetrapeptide previously designed from FGF14:FGF14 dimer interface; docked with N-terminal acetylation and C-terminal amidation] | slight, but statistically significant increase; also recorded: not PLEV | increased the inhibition | not PLEV |
| EYYV [tetrapeptide previously designed from FGF14:FGF14 dimer interface; docked with N-terminal acetylation and C-terminal amidation] | prevented the effect of FLPK and EYYV; also recorded: abolished | increased the inhibition | prevented the effect of FLPK and EYYV; also recorded: abolished |
| CC(=O)N[C@@H](Cc1ccccc1)C(=O)N[C@@H](CC(C)C)C(=O)N1CCC[C@H]1C(=O)N[C@@H](CCCCN)C(N)=O [FLPK] (Ac-FLPK-NH2) | prevented the effect of FLPK and EYYV; also recorded: abolished | abolished the effect of FLPK | prevented the effect of FLPK and EYYV; also recorded: abolished |
